Here are results for 2 molecules from publication PMC2391127, “Modulation of erlotinib pharmacokinetics in mice by a novel cytochrome P450 3A4 inhibitor, BAS 100” (British Journal of Cancer, 2008).

Data set [1] is described as follows: Plasma pharmacokinetics of erlotinib, OSI-420 and BAS 100 after oral dosing in BALB/c mice. Format: in vivo. As to conditions: for AUC(0-t) / Cmax / half-life: BALB/c; for AUC(0-t) / Cmax / half-life / Tmax: mouse, po; for half-life: read-out: HL λz (terminal half-life) (converted). Here is the method:
(§1) BAS 100 was obtained from Bioavailabilty Systems (Cocoa Beach, FL, USA), and erlotinib and OSI-420 were obtained from Toronto Research Chemicals (North York, ON, Canada). All other chemicals and reagents were purchased from Sigma-Aldrich (St Louis, MO, USA). Female BALB/c mice (6–8 weeks old) were kept in a controlled environment, with food and water available ad libitum. All procedures were carried out with NCI Animal Care and Use Committee approval. In the first study, BAS 100 and erlotinib were formulated in 10% DMSO and 5% polysorbate 80 in saline. Mice were randomised to receive erlotinib (10 mg kg^−1, p.o.) alone or 30 min after BAS 100 (10 mg kg^−1, p.o.). Blood was collected by cardiac puncture from three mice per time point at 0.083, 0.25, 0.5, 1, 2, 4, 6 and 24 h following erlotinib administration, and centrifuged to obtain plasma. In the second study, erlotinib was formulated in 0.3% carboxymethylcellulose and 0.1% polysorbate 80 in saline. Female CYP3A4 transgenic mice ([Granvil et al, 2003]) and wild-type FVB/NCr mice (14 weeks old) received erlotinib (10 mg kg^−1, p.o.) alone or 30 min after BAS 100 (25 mg kg^−1, p.o.). Blood was collected 2 h after erlotinib administration. All samples were stored at −80°C until analysis. Plasma concentrations of erlotinib and OSI-420 were measured as described previously ([Zhao et al, 2003]). Plasma concentrations of BAS 100 were measured by a novel liquid chromatography-tandem mass spectrometry method. Briefly, plasma samples were prepared by protein precipitation with acetonitrile. BAS 100 and the internal standard (temazepam) were resolved isocratically on a Waters XTerra MS C18 column (50 × 2.1 mm internal diameter; 3.5 μm particle size). The mass spectrometer was equipped with an electrospray ionisation source and operated in positive mode. Detection was performed by multiple reaction monitoring. The lower limit of quantitation was 10 ng ml^−1. Pharmacokinetic parameters were determined by noncompartmental analysis using WinNonlin Professional Version 5.2 (Pharsight Corporation, Mountain View, CA, USA). Bailer's method ([Bailer, 1988]) was used to estimate the variance of the area under the curve (AUC). A Z-test was used for the pairwise comparison of AUCs ([Yuan, 1993]).

For data set [2] the following is noted: ref Hidalgo et al, 2001, cited from earlier work.
Data set [3] in a line: 2-h plasma concentration of erlotinib in wild-type FVB/NCr mice. It is filed as in vivo. Conditions: for concentration at 2 h: female, FVB/NCr, mouse, plasma, po. Here is the method: as §1, with “Bailer's method ([Bailer, 1988]) was used to estimate the variance of the area under the curve (AUC). A Z-test was used for the pairwise comparison of AUCs ([Yuan, 1993]).” left out

Data set [4] can be described thus: 2-h plasma concentration of erlotinib in CYP3A4 transgenic mice. As to conditions: female, mouse, in vivo, po, 10 mg kg^-1. Here is the method: BAS 100 was obtained from Bioavailabilty Systems (Cocoa Beach, FL, USA), and erlotinib and OSI-420 were obtained from Toronto Research Chemicals (North York, ON, Canada). All other chemicals and reagents were purchased from Sigma-Aldrich (St Louis, MO, USA). Female BALB/c mice (6–8 weeks old) were kept in a controlled environment, with food and water available ad libitum. All procedures were carried out with NCI Animal Care and Use Committee approval. In the first study, BAS 100 and erlotinib were formulated in 10% DMSO and 5% polysorbate 80 in saline. Mice were randomised to receive erlotinib (10 mg kg^−1, p.o.) alone or 30 min after BAS 100 (10 mg kg^−1, p.o.). Blood was collected by cardiac puncture from three mice per time point at 0.083, 0.25, 0.5, 1, 2, 4, 6 and 24 h following erlotinib administration, and centrifuged to obtain plasma. In the second study, erlotinib was formulated in 0.3% carboxymethylcellulose and 0.1% polysorbate 80 in saline. […] Plasma concentrations of erlotinib and OSI-420 were measured as described previously ([Zhao et al, 2003]). Plasma concentrations of BAS 100 were measured by a novel liquid chromatography-tandem mass spectrometry method. […] The lower limit of quantitation was 10 ng ml^−1. Pharmacokinetic parameters were determined by noncompartmental analysis using WinNonlin Professional Version 5.2 (Pharsight Corporation, Mountain View, CA, USA). […]

Where [5] appears, read: female, plasma, 10 mg/kg, plasma, erlotinib 10 mg kg^-1 p.o. 30 min after BAS 100 10 mg kg^-1 p.o., BALB/c mice.
[6] abbreviates: female, plasma, 10 mg/kg, erlotinib 10 mg kg^-1 p.o. alone (-BAS 100), BALB/c mice.

Where two headings read alike, the source gives them in different places.

Usually AUC(0-t) stands for the area under the concentration-time curve up to a stated or last time point. A lower AUC(0-t) goes with low exposure. By Cmax is commonly meant the highest concentration seen after dosing. The term half-life denotes the time needed for the level to fall by half in the phase considered. One may read the Tmax as the time at which the peak concentration occurs. Turning to `C#Cc1cccc(Nc2ncnc3cc(OCCOC)c(OCCOC)cc23)c1` [Erlotinib], the “erlotinib exposure after 2.5-fold increase in the dose of BAS 100” value in data set [1] (BAS 100 25 mg kg^-1 vs 10 mg kg^-1, data not shown) is “did not result in a further increase in erlotinib exposure”. In addition, the “fold increase in the AUC of erlotinib by BAS 100” value in data set [1] (erlotinib 10 mg kg^-1 p.o. after BAS 100 10 mg kg^-1 p.o. vs alone, P<0.05) came to 2.1 fold. Also, the AUC(0-t) in data set [1] (setting [5]) is 38000 ng·h/mL; in data set [1] (setting [6]), 18000 ng·h/mL. Moreover, the Cmax in data set [1] (setting [5]) worked out at 3950 ng/mL; in data set [1] (setting [6]), 2320 ng/mL. Further, the half-life in data set [1] (setting [5]) is 3.2 h; in data set [1] (female, plasma, 10 mg/kg, plasma, erlotinib 10 mg kg^-1 p.o. alone (-BAS 100), BALB/c mice), 3.1 h. In addition, in data set [1] (female, plasma, erlotinib 10 mg kg^-1 p.o. alone (-BAS 100), BALB/c mice, read-out: Tmax), the Tmax was determined as 0.5 h. For the same molecule, the “relative extent of metabolism of erlotinib into OSI-420” value in data set [2] (cancer patients) is 0.12. Besides, the interindividual pharmacokinetic variability result in data set [2] (patients, Tan et al, 2004) is reported as “up to eight-fold”. Also, the “fold increase in 2-h plasma concentration of erlotinib by BAS 100” value in data set [3] (BAS 100 25 mg kg^-1 p.o.) is listed as 1.9 fold. Moreover, the values for the concentration at 2 h in data set [3] (erlotinib 10 mg kg^-1 p.o. 30 min after BAS 100 25 mg kg^-1 p.o.), in data set [3] (erlotinib 10 mg kg^-1 p.o. alone) and in data set [4] were 1410 ± 237 ng/mL, 744 ± 135 ng/mL and 929 ± 80 ng/mL, respectively.
As for `C#Cc1cccc(Nc2ncnc3cc(OCCOC)c(OCCO)cc23)c1` [OSI-420], in data set [1] (in vivo, 10 mg/kg), the Tmax was 2.0 h.
